Test results reported in US20200390755A1, “COMPOUND FOR TREATING NERVOUS SYSTEM DISEASES AND USE THEREOF” (SHAANXI MICOT TECHNOLOGY CO., LTD., priority 2018, published 2020).

Tests used:
[1] = test system: WT mice; test: High-altitude balance beam (5 mm) experiment 2, WT mice; type: in vivo, mouse; settings: 5 mg/kg/d intragastric
Protocol: 7-week-old N171-82Q HD male mice were paired with female B6C3F1/J hybrid mice to obtain newborn mice. From 21 days of age, male mice were housed in separate cages. 0.5 cm of mouse tail tissue was removed to extract DNA to determine the genotype of the mouse, such that N171-82Q HD mice and WT mice needed for the experiment were obtained. The mice were randomly divided into WT Vehicle group (normal mice), WT test compound group (administration group of normal mice, 5 mg/kg/d, n=10), HD Vehicle group (blank group of HD mice, n=15), HD test compound group (administration groups 1-5 of HD mice, 5 mg/kg/d, n=10). The test compound was suspended in 1% CMC-Na solution and administered by intragastric administration until the end of the study. The weights of the mice were measured every week. Behavioral tests were performed at 12 weeks, 18 weeks, and 24 weeks of age to investigate motor function. At 20 weeks, 3 samples of tissue from each group were used for western blotting and immunohistochemistry. At 24 weeks, MRI scans were performed. At the end of the study, the effect of the test compound on the mortality of mice was evaluated. The software Sigmaplot 13.0 was used for statistical analysis of the data, and the data of each group was expressed as mean standard error (x±SEM). Behavioral test results were analyzed using two-way (genotype and processing factor) ANOVA and post-ho tests, the comparison and statistics of weight data were performed using two-way (genotype and age) ANOVA of repeated measures, and mortality was counted using Kaplan-Meier method. Other measurement data were analyzed by one-way ANOVA. P<0.05 was considered statistically significant. The motor function of mice was evaluated by the rotarod experiment and three types of balance beam experiments. […] If the time for crossing the beams was greater than 60 seconds, it was recorded as 60 seconds. a square balance beam with a length of 80 cm and a width of 5 mm was place at a height of about 50 cm from the ground. […]

[2] = test system: WT mice; test: In vivo MRI scan and brain volume measurement, WT mice; parameters: species or system mouse; settings: 5 mg/kg/d, administered until 24 weeks, n = 4
Protocol: 7-week-old N171-82Q HD male mice were paired with female B6C3F1/J hybrid mice to obtain newborn mice. From 21 days of age, male mice were housed in separate cages. 0.5 cm of mouse tail tissue was removed to extract DNA to determine the genotype of the mouse, such that N171-82Q HD mice and WT mice needed for the experiment were obtained. The mice were randomly divided into WT Vehicle group (normal mice), WT test compound group (administration group of normal mice, 5 mg/kg/d, n=10), HD Vehicle group (blank group of HD mice, n=15), HD test compound group (administration groups 1-5 of HD mice, 5 mg/kg/d, n=10). The test compound was suspended in 1% CMC-Na solution and administered by intragastric administration until the end of the study. The weights of the mice were measured every week. Behavioral tests were performed at 12 weeks, 18 weeks, and 24 weeks of age to investigate motor function. At 20 weeks, 3 samples of tissue from each group were used for western blotting and immunohistochemistry. At 24 weeks, MRI scans were performed. At the end of the study, the effect of the test compound on the mortality of mice was evaluated. The WT Vehicle group, WT test compound group, HD Vehicle group and HD test compound group were administered until 24 weeks, and 4 mice in each group were taken for in vivo MRI scanning and brain volume measurement. A 9.4 T MRI scanner equipped with three-axis gradient and animal imaging probes was used. The mice were anesthetized with 1% isoflurane. The breath of mice was monitored, and constant temperature was maintained throughout the scan. Three-dimensional T2 weighted fast spin echo sequence technology was used to obtain images. The imaging resolution and contrast of this technology were sufficient to automatically describe the volume of the mouse brain and substructures. […] These transformations encoded morphological differences between images and analyzed based on deformation morphological measurements (DBM) to detect regional changes in brain volume. The volume of the whole brain (Brain), […] was analyzed. […]

With `O=c1cc(-c2ccc(N3CCCCC3)cc2)oc2c(O)c(O)ccc12` [Example 1, 7,8-dihydroxy-2-(4-(piperidin-1-yl)phenyl)-4H-chromen-4-one] the “Time for crossing the beams, high-altitude balance beam (5 mm)” value (“Time for crossing the beams” for short) ([1]; 12 w) was 11.64 ± 4.20 s, the “Time for crossing the beams” value ([1]; 18 w) was 9.91 ± 3.05 s and the “Time for crossing the beams” value ([1]; 24 w) was 14.18 ± 7.07 s. The “MRI volume, Neurocortex” value [2] was 20.11 ± 0.377 mm^3, the “MRI volume, Striatum” value [2] was 88.99 ± 0.985 mm^3 and the “MRI volume, Whole brain” value [2] was 489.08 ± 7.14 mm^3.
